Laboratory results reported in patent US7112676B2, “Pyrimido compounds having antiproliferative activity” (Hoffmann-La Roche Inc., priority 2002, dated 2006).

Assays:
VEGF-stimulated HUVEC = VEGF-stimulated HUVEC proliferation assay (BrdU); type: cell-based; conditions: Homo sapiens, VEGF 20 ng per mL, BrdU labeling, 24 hour exposure, read-out: IC50 (μM) of VEGF and FGF-Stimulated HUVEC Proliferation Assays HUVEC/VEFG
Experimental: (§1) The antiproliferative activity of test compounds of this invention in cell-based assays was evaluated by BrdU assay using the BrdU kit (Roche Biochemicals 1-647-229). Human umbilical vein endothelial cells (HUVEC, Clonetics CC-2519) were cultured in EGM-2 (Clonetics CC-3162) medium and seeded at 10000 cells per well in a volume of 200 μL of EGM-2 (Clonetics CC-3162) media in a 96-well flat bottom plates (Costar 3595) overnight. After 24 hours of growth at 37° C. with 5% CO2, the incubation media was removed slowly by aspiration and the content of each well was washed with 300 μL pre-warmed EBM-2 (Clonetics CC-3156) containing 50 μg per mL of gentamycin and 50 ng per mL of amphotercin-B (Clonetics CC-4083). Subsequently, the remaining media was again aspirated and replaced with 160 μL per well of serum starvation media (EBM-2 supplemented with 1% heat inactivated FBS (Clonetics CC-4102), 50 μg per mL gentamycin and 50 ng per mL of amphotercin-B (Clonetics CC-4083), 10 units per mL of Wyeth-Ayerst heparin (NDC0641-0391-25), and 2 mM L-glutamine (GIBCO 25030-081). After serum starving the cells for 24 hours, 20 μL of test compound at 10× test concentration in serum starvation medium with 2.5% DMSO was added to the appropriate wells. The control wells contained 20 μL of serum starvation medium with 2.5% DMSO. Plates were returned to the incubator for 2 hours. After pre-incubating the cells with the test compounds for 2 hours, 20 μL of growth factors at 10× assay concentration diluted in serum starvation media, FGF at 50 ng per mL, or VEGF (R&D systems 293-VE) at 200 ng per mL were added. The final concentration of FGF in the assay was 5 ng per mL and the final concentration of VEGF in the assays was 20 ng per mL. The growth factor free control wells had 20 μL per well of serum starvation media with the same amount of BSA as the wells with growth factors. The plates were returned to the incubator for an additional 22 hours.
(§2) After 24 hour exposure to the test compounds, the cells were labeled with BrdU (Roche Biochemicals 1-647-229), by adding 20 μL per well of BrdU labeling reagent that has been diluted (1:100) in serum starvation medium. The plates were then returned to the incubator for 4 hours. The labeling medium was removed by draining the medium onto paper towels. The cells were fixed and DNA denatured by adding 200 μL of fixation/denaturation solution to each well and incubating at room temperature for 45 minutes. The fixation/denaturation solution was drained onto paper towels and to each well was added 100 μL of anti-BrdU-POD and the wells were incubated for 2 hours at room temperature. The antibody solution was removed and the wells were each washed 3–4 times with 300 μl PBS. 100 μL of the TMB substrate solution was added to each well and the wells were incubated at room temperature for 5–8 minutes. The reaction was then stopped by adding 100 μL per well of 1 M phosphoric acid. The plates were read at 450 nm with reference wavelength of 650 nm. The percent inhibition for each test compound was calculated by subtracting the absorbency of the blank (no cells) wells from all wells, then subtracting the division of the average absorbency of each test duplicate by the average of the controls from 1. The final product was then multiplied by 100 (% of inhibition=(1−average absorbency of test duplicate/average of control)100). The IC50 value is the concentration of test compound that inhibits by 50% BrdU labeling, and is a measure of inhibition of cell proliferation. The IC50 is determined from the linear regression of a plot of the logarithm of the concentration versus percent inhibition.

PDGFR = PDGFR kinase HTRF assay; type: biochemical; conditions: 2.3 μM ATP, read-out: IC50 (μM) - Enzyme Inhibition Assays PDGFR
Experimental: (§3) To determine inhibition of KDR, FGFR, EGFR, and PDGFR activity, kinase assays were conducted using an HTRF (Homogeneous Time Resolved Fluorescence) assay. This assay is described in A. J. Kolb et. al., Drug Discovery Today, 1998, 3(7), p 333.
(§4) Kinase activity assays were performed in 96-well polypropylene plates (Falcon) with a total volume of 90 μL in each well. Each well contained 1 μM KDR substrate (Biotin-EEEEYFELVAKKKK), 1 nM activated KDR, and a test compound with one of 8 assay concentrations ranging from 100 μM to […] (1:5 serial dilution). The kinase activity assay was done in the presence of 100 mM HEPES, pH 7.4, 1 mM DTT, 0.1 mM Na2VO4, 25 mM MgCl2, 50 mM NaCl (from KDR stock solution), 1% DMSO (from compound), 0.3 mM ATP (at Km concentration) and 0.02% BSA. The reaction was incubated at 37° C. for 30 minutes. To stop the KDR reaction, 72 μL of reaction mixture was transferred into a STOP plate containing 18 μL of revelation buffer (20 mM EDTA, 50 mM HEPES, pH 7.4, 0.02% BSA, 10 nM Eu-labelled anti-pY antibody (final conc. 2 nM), and 100 nM streptavidin (final conc. 20 nM)). After mixing, 35 μL of solution was transferred into duplicate wells of a 384-well black plate (Costar), and read at 615/665 nm on a Wallac Victor 5 reader.
(§5) The PDGFR kinase activity assay was performed with 1 μM substrate (Biotin-EEEEYFELV), 1.0 nM PDGFR, test compounds, 100 mM HEPES, pH 7.4, 1 mM DTT, 5 mM MgCl2, 2 mM MnCl2, 1% DMSO, 2.3 μM ATP (Km for PDGFR), 0.1 mM Na2VO4, and 0.02% BSA. The rest of the assay was performed in the same manner as the KDR assay.
(§6) Compound IC50 values were determined from duplicate sets of data, and calculated by using Excel and fitting data to equation Y=[(a−b)/{1+(X/c)^d]+b, where a and b are enzyme activity in the presence of no test inhibitor compound and an infinite amount of inhibitor test compound, respectively, c is the IC50 and d is the hill constant of the compound response. The IC50 value is the concentration of test compound that reduces by 50% the enzyme activity under the test conditions described.

FGF-stimulated HUVEC = FGF-stimulated HUVEC proliferation assay (BrdU); type: cell-based; conditions: Homo sapiens, FGF 5 ng per mL, BrdU labeling, 24 hour exposure, read-out: IC50 (μM) of VEGF and FGF-Stimulated HUVEC Proliferation Assays HUVEC/bFGFR
Experimental: as §1, §2

EGFR = EGFR (Homo sapiens, UniProt P00533); experiment: EGFR kinase HTRF assay; type: biochemical; conditions: 0.5 μM ATP, read-out: IC50 (μM) - Enzyme Inhibition Assays EGFR
Experimental: as §3, §4
as §5, with “EGFR” for “PDGFR”, “1.5” for “1.0”, “EGFR,” for “PDGFR,”, “0.5” for “2.3”, “EGFR),” for “PDGFR),”
as §6

FGFR = target: T1, FGFR; experiment: FGFR kinase HTRF assay; type: biochemical; conditions: 10 μM ATP, read-out: IC50 (μM) - Enzyme Inhibition Assays FGFR
T1 construct: fused on or other part: GST tag
Experimental: as §3, §4
FGFR, EGFR, and PDGFR activity assays were carried out as described above for the KDR activity assay with the following differences. GST-tagged FGFR enzyme was activated at room temperature for 1 hour in the following activation buffer: 100 mM HEPES, pH 7.4, 50 mM NaCl, 20 mM MgCl2, and 4 mM ATP. The kinase activity assay was performed with 1 μM substrate (Biotin-EEEEYFELV), 1.5 nM activated FGFR, and test compound in the presence of 100 mM HEPES, 1 mM DTT, 0.4 mM MgCl2, 0.4 mM MnCl2, 50 mM NaCl, 1% DMSO, 10 μM ATP (Km=8.5 μM for FGFR), 0.1 mM Na2VO4, and 0.02% BSA, in a total volume of 90 μL. The rest of the assay was performed in the same manner as KDR assay.
as §6

KDR = target: T2, KDR (Homo sapiens, UniProt P35968); experiment: KDR kinase HTRF assay; type: biochemical; conditions: 0.3 mM ATP, read-out: IC50 (μM) - Enzyme Inhibition Assays KDR
T2 construct: EEE-tag
Experimental: as §3
Prior to kinase reaction, recombinant EEE-tagged KDR was activated in the presence of activation buffer (50 mM HEPES, pH 7.4, 1 mM DTT, 10% glycerol, 150 mM NaCl, 0.1 mM EDTA, 26 mM MgCl2, and 4 mM ATP). The enzyme was incubated at 4° C. for 1 hour.
as §4, §6

T2 sequence (P35968 20-1356, species assumed): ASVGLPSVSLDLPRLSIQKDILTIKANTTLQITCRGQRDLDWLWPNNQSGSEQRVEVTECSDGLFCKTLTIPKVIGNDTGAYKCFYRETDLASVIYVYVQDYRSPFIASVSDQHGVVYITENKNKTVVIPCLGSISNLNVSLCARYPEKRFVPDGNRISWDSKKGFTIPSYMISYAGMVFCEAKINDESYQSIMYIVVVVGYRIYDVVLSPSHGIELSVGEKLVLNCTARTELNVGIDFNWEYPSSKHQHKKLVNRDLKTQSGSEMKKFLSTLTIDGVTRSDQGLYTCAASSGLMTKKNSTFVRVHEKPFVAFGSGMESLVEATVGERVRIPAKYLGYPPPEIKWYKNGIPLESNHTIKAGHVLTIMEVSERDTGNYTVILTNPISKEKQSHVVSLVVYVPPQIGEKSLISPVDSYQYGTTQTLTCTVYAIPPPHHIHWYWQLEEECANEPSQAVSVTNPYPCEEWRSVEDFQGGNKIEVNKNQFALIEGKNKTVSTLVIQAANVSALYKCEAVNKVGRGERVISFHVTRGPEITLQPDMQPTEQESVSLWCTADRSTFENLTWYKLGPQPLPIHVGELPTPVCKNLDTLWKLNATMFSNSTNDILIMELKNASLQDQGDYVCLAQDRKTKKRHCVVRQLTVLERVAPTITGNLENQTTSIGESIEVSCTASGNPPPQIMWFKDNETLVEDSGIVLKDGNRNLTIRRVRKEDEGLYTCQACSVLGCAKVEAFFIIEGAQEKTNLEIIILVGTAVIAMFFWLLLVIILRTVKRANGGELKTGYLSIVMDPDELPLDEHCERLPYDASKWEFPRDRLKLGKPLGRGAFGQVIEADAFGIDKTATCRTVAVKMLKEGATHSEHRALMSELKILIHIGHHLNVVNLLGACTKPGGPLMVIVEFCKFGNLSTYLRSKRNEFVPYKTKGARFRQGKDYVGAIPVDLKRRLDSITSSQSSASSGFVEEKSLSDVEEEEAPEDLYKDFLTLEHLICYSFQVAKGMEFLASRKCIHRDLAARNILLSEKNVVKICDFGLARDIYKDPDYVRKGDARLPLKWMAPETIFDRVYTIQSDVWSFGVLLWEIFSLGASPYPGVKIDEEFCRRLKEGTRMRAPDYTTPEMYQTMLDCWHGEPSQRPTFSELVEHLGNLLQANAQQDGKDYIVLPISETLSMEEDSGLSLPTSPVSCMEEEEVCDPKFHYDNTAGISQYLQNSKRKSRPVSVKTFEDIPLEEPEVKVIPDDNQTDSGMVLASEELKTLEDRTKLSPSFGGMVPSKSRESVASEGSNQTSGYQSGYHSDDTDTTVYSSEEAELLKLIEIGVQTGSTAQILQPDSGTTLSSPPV
EGFR, sequence (P00533 25-1210, species assumed): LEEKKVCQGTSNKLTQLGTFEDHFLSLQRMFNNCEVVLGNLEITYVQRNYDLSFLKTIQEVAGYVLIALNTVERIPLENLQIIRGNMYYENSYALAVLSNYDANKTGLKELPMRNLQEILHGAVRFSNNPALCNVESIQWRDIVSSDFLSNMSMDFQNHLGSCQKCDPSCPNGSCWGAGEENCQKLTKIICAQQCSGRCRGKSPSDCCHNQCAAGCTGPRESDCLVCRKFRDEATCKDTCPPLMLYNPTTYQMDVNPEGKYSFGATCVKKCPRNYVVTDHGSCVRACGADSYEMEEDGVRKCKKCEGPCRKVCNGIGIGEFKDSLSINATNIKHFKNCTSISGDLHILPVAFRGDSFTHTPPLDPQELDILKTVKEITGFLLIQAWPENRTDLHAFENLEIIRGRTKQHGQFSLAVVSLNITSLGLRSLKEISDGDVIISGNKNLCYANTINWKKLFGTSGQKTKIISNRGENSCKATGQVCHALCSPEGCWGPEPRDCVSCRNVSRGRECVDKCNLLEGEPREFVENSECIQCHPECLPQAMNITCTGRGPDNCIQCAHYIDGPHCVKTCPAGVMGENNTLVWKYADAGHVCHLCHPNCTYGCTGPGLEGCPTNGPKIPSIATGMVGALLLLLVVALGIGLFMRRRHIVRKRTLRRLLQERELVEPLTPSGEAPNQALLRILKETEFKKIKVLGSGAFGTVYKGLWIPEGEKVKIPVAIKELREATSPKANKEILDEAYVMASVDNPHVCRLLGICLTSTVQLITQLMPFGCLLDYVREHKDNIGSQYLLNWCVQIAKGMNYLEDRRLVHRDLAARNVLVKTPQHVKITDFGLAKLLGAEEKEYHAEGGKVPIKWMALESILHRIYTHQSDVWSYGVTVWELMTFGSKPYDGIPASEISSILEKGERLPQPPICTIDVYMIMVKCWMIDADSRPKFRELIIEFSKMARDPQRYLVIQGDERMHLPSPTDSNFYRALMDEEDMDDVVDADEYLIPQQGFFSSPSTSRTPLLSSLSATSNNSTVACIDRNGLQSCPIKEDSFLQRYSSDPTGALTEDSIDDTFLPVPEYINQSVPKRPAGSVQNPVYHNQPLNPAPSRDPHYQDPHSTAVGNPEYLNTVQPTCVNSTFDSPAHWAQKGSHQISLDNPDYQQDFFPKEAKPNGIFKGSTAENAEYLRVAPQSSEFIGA

Row | SMILES | IC50 (PDGFR) [µM] | IC50 (EGFR) [µM] | IC50 (FGFR) [µM] | IC50 (KDR) [µM] | melting point [°C] | IC50 (VEGF-stimulated HUVEC) [µM] | IC50 (FGF-stimulated HUVEC) [µM]
1 | COc1ccc(N2C(=O)N(c3ccccc3)c3nc(N(C(C)=O)c4ccccc4)ncc3C2C)cc1 (racemic) [Example 19, (±)-N-[6-(4-Methoxy-phenyl)-5-methyl-7-oxo-8-phenyl-5,6,7,8-tetrahydro-pyrimido[4,5-d]pyrimidin-2-yl]-N-phenyl-acetamide] | < 10 | < 10 | < 10 | < 10 | – | < 10 | < 10
2 | CCC1c2cnc(Nc3ccccc3)nc2N(c2ccccc2)C(=O)N1c1ccc(OC)cc1 (racemic) [Example 7e, (±)-4-Ethyl-3-(4-methoxy-phenyl)-1-phenyl-7-phenylamino-3,4-dihydro-1H-pyrimido[4,5d]pyrimidin-2-one] | < 10 | < 10 | < 10 | < 10 | 172 to 176 | – | –
3 | COc1ccc(N2C(=O)N([C@@H](C)c3ccccc3)c3nc(Nc4ccccc4)ncc3C2C)cc1 (stereo partly drawn) [Example 18, 3-(4-Methoxy-phenyl)-4-methyl-7-phenylamino-1-[1-(S)-phenyl-ethyl]-3,4-dihydro-1H-pyrimido[4,5-d]pyrimidin-2-one] | < 10 | < 10 | < 10 | < 10 | – | < 10 | < 10
4 | COc1ccc(N2C(=O)N(c3ccccc3)c3nc(Nc4ccccc4)ncc3C2C(C)C)cc1 (racemic) [Example 11e, (±)-4-Isopropyl-3-(4-methoxy-phenyl)-1-phenyl-7-phenylamino-3,4-dihydro-1H-pyrimido[4,5-d]pyrimidin-2-one] | > 10 | < 10 | > 10 | > 10 | 229 to 235 | – | –
5 | COc1ccc(N2C(=O)N([C@@H](C)CO)c3nc(Nc4ccccc4)ncc3C2C)cc1 (stereo partly drawn) [Example 13d, 1-(2-Hydroxy-1-(S)-methyl-ethyl)-3-(4-methoxy-phenyl)-4-methyl-7-phenylamino-3,4-dihydro-1H-pyrimido[4,5-d]pyrimidin-2-one] | – | – | – | – | 165 to 180 | – | –

Further lines, with some results ahead:

Row | IC50 (PDGFR) [µM] | IC50 (EGFR) [µM] | IC50 (FGFR) [µM] | IC50 (KDR) [µM] | melting point [°C] | SMILES | IC50 (VEGF-stimulated HUVEC) [µM] | IC50 (FGF-stimulated HUVEC) [µM]
6 | < 10 | < 10 | < 10 | < 10 | – | COc1ccc(N2C(=O)N([C@H]3CC[C@H](O)CC3)c3nc(Nc4ccccc4)ncc3C2C)cc1 (mixture of isomers) [Example 20b, (±)-1-(trans-4-Hydroxy-cyclohexyl)-3-(4-methoxy-phenyl)-4-methyl-7-phenylamino-3,4-dihydro-1H-pyrimido[4,5-d]pyrimidin-2-one] | < 10 | < 10
7 | < 10 | < 10 | < 10 | < 10 | 158 to 162 | COc1ccc(N2C(=O)N([C@H](C)CO)c3nc(Nc4ccccc4)ncc3[C@H]2C)cc1 [Example 14f, 1-(2-Hydroxy-1-(R)-methyl-ethyl)-3-(4-methoxy-phenyl)-4-(R)-methyl-7-phenylamino-3,4-dihydro-1H-pyrimido[4,5-d]pyrimidin-2-one] | – | –
8 | < 10 | < 10 | < 10 | < 10 | 218 to 233 | COc1ccc(N2C(=O)N(c3ccccc3)c3nc(Nc4ccccc4)ncc3[C@H]2C)cc1 (single isomer, unassigned) [Example 2] | – | –
9 | < 10 | < 10 | < 10 | < 10 | – | COc1ccc(Cl)c(N2C(=O)N(c3ccccc3)c3nc(Nc4ccccc4)ncc3C2C)c1 (racemic) [Example 12c, (±)-3-(2-Chloro-5-methoxy-phenyl)-4-methyl-1-phenyl-7-phenylamino-3,4-dihydro-1H-pyrimido[4,5-d]pyrimidin-2-one] | – | –
